Results from US9370503B1, “Compounds for treating ocular diseases” (priority 2015, dated 2016).

Columns and labels:
[1] = tested on: ARPE-19 cells; assay: MTT assay, proliferation/cytotoxicity in ARPE-19 cells; type: cell-based, human; conditions: 72 hours
Method: (§1) ARPE-19 cells were grown in DMEM/F12 medium supplemented with 10% FBS, 100 units/ml penicillin G, and 100 μg/ml streptomycin sulfate. HUVECs were grown in vascular cell basal medium supplemented with endothelial cell growth kit. Cells were incubated in a humidified incubator at 37° C. under 5% CO2 and 95% air.
(§2) MTT assay was used to measure the viability of ARPE-19 cells and HUVECs. 2×10^5 ARPE-19 cells or 5×10^4 HUVECs were seeded in 96-well plates (100 μl/well) and allowed to grow overnight. Negative control was prepared by adding 100 μl medium without cells. The cells were then treated with fresh medium with a compound of Formula (II) (“(II)”) (0.03, 0.1, 0.3, 1, 3 and 10 μg/ml) and/or oxidants (NaIO3, H2O2, t-BHP and NaN3) for 12, 24, or 72 hours (200 μl/well). The vehicle control group was treated with vehicle. 20 μl MTT (5 mg/ml) was added to wells, and incubated for another 4 h. After incubation, the medium was discarded and 100 μl DMSO was added to solubilize formazan produced from MTT by the viable cells. Absorbance was measured at 570 nm using a microplate reader (Bio-Rad Laboratories, Inc., CA). Cells viability was calculated according to the following formula: Viability of cells (%)=(absorbance in tested sample−absorbance in negative control)/(absorbance in vehicle control−absorbance in negative control)×100%.

[2] = tested on: ARPE-19 cells; assay: Hypoxia-induced damage in ARPE-19 cells (MTT); type: cell-based, human; conditions: hypoxia 1% O2, 72 h
Method: as §1
MTT assay was used to measure the viability of ARPE-19 cells and HUVECs. 2×10^5 ARPE-19 cells or 5×10^4 HUVECs were seeded in 96-well plates (100 μl/well) and allowed to grow overnight. Negative control was prepared by adding 100 μl medium without cells. The cells were then treated with fresh medium with a compound of Formula (II) (“(II)”) (0.03, 0.1, 0.3, 1, 3 and 10 μg/ml) and/or oxidants (NaIO3, H2O2, t-BHP and NaN3) for 12, 24, or 72 hours (200 μl/well). The vehicle control group was treated with vehicle. 20 μl MTT (5 mg/ml) was added to wells, and incubated for another 4 h. After incubation, the medium was discarded and 100 μl DMSO was added to solubilize formazan produced from MTT by the viable cells. Absorbance was measured at 570 nm using a microplate reader (Bio-Rad Laboratories, Inc., CA). Cells viability was calculated according to the following formula: Viability of cells (%)=(absorbance in tested sample−absorbance in negative control)/(absorbance in vehicle control−absorbance in negative control)×100%. […]

[3] = Hypoxia-induced damage in HUVECs (MTT); type: cell-based, human; conditions: human, HUVECs, 10 μg/ml, P<0.01, read-out: decrease of viability of HUVECs in hypoxic condition
Method: as §1, §2
(§3) Cells were allowed to attach overnight, and then exposed to (II) or vehicle under hypoxic condition for 72 h. Hypoxic conditions (1% O2, 5% CO2 and 94% N2) were maintained by using a temperature and humidity controlled environmental C-chamber by O2 and CO2 controllers (Proox Model 110 and Pro CO2 Model 120, Bio Spherix Ltd., Redfield, N.Y., USA) with N2 and CO2 gas sources.

[4] = tested on: HUVECs; assay: Hypoxia-induced damage in HUVECs (MTT); type: cell-based, human; conditions: 72 h
Method: as §1, §2, §3

[5] = tested on: HUVECs; assay: NaIO3-induced injury in HUVECs (MTT); type: cell-based, human; conditions: 3 and 10 μg/ml compound, 72 hours
Method: as §1, §2

[6] = tested on: HUVECs; assay: H2O2-induced injury in HUVECs (MTT); type: cell-based, human; conditions: 24 hours; for enhancement of H2O2-induced injury in HUVECs: 10 μg/ml compound
Method: as §1, §2

[7] = tested on: ARPE-19 cells; assay: NaN3-induced injury in ARPE-19 cells (MTT); type: cell-based, human; conditions: 0.03 μg/ml to 10 μg/ml compound, 72 hours
Method: as §1, §2

[8] = tested on: HUVECs; assay: NaN3-induced injury in HUVECs (MTT); type: cell-based, human; conditions: 72 hours
Method: as §1, §2

[9] = tested on: ARPE-19 cells; assay: t-BHP-induced injury in ARPE-19 cells (MTT); type: cell-based, human; conditions: 12 hours
Method: as §1, §2

[10] = tested on: HUVECs; assay: t-BHP-induced injury in HUVECs (MTT); type: cell-based, human; conditions: 12 hours
Method: as §1, §2

[11] = tested on: NaIO3 induced dry AMD rat model; assay: NaIO3 induced dry AMD rat model, c-wave of ERG; type: in vivo; conditions: 1% eye drops 3 times a day, 35 mg/kg NaIO3, BN rats
Method: A total of thirty 8-week-old male Brown-Norway (BN) rats were randomly divided into 3 groups, 10 rats in normal group, 10 rats in NaIO3 group and 10 rats in (II)+NaIO3 group. Control group was instilled with solvent (2-hydroxypropyl-β-cyclodextrin, Sigma-Aldrich) alone without NaIO3 injection. NaIO3 group was instilled with solvent plus 35 mg/kg NaIO3 injection through hypoglossal vein; whereas (II)+NaIO3 group was instilled with 1% (II) eye drops plus 35 mg/kg NaIO3 injection. Both eyes of all rats were instilled with 1 drop for 3 times a day for 1 week before and 4 weeks after NaIO3 injection. At the end of 2 and 4 weeks, RPE function was measured with c-wave of ERG.
BN rats were dark adapted for 2 hours, and then anesthetized with ketamine 35 mg/kg plus xylazine 5 mg/kg i.m, Half of the initial dose was given each 1 hour thereafter. Pupils of all rats were dilated with one drop each of 1% atropine, and 2.5% phenylephrine. Before recording, one drop of 0.5% tetracaine was given for surface anesthesia. All rats were kept warm during ERG measurement. DC-ERG recording methods developed by Peachey were followed. […] Data were analyzed by iWORX LabScribe Data Recording Software (iWorxOCB Sciences, Dover, N.H.). […]

## CC(C)=CCC/C(C)=C/Cc1c([C@@H]2CC(=O)c3c(cc(O)c(CC=C(C)C)c3O)O2)ccc(O)c1O [Formula (II)]
[1]; 0.03 μg/ml to 3 μg/ml
  effect on proliferation of ARPE-19 cells: did not affect
[1]; Homo sapiens, ARPE-19, 10 μg/ml
  inhibition at 10 µg/mL: 34%
[2]; 0.03 μg/ml to 3 μg/ml
  effect on viability of ARPE-19 cells in hypoxic condition: no effect
[2]; 10 μg/ml
  reversal of injury induced by hypoxia in ARPE-19 cells: 24%
[3]
  cytotoxicity at 72 h, 10 μg/ml: 97%
[4]; 0.03 μg/ml
  increase of viability of HUVECs in hypoxic condition: 22%
[4]; 0.1 μg/ml
  increase of viability of HUVECs in hypoxic condition: 19%
[4]; 0.3 μg/ml
  increase of viability of HUVECs in hypoxic condition: 26%
[5]
  effect on NaIO3-induced injury in HUVECs: enhanced
[6]; 200 μM H2O2
  enhancement of H2O2-induced injury in HUVECs: 63%
[6]; 400 μM H2O2
  enhancement of H2O2-induced injury in HUVECs: 42%
[6]; 0.3 and 1 μg/ml compound
  effect on H2O2-induced injury in HUVECs: reversed
[7]
  effect on NaN3-induced injury in ARPE-19 cells: significantly reversed
[8]; 0.3 mM NaN3, 3 μg/ml compound
  enhancement of NaN3-induced injury in HUVECs: 75%
[8]; 0.3 mM NaN3, 10 μg/ml compound
  enhancement of NaN3-induced injury in HUVECs: 95%
[8]; 1 mM NaN3, 10 μg/ml compound
  enhancement of NaN3-induced injury in HUVECs: 75%
[8]; 3 mM NaN3, 3 μg/ml compound
  enhancement of NaN3-induced injury in HUVECs: 44%
[8]; 3 mM NaN3, 10 μg/ml compound
  enhancement of NaN3-induced injury in HUVECs: 71%
[9]
  effect on t-BHP-induced injury in ARPE-19 cells: significantly reversed
[10]; 50 μM t-BHP, 3 μg/ml compound
  enhancement of t-BHP-induced injury in HUVECs: 27%
[10]; 50 μM t-BHP, 10 μg/ml compound
  enhancement of t-BHP-induced injury in HUVECs: 71%
[10]; 100 μM t-BHP, 3 μg/ml compound
  enhancement of t-BHP-induced injury in HUVECs: 21%
[10]; 100 μM t-BHP, 10 μg/ml compound
  enhancement of t-BHP-induced injury in HUVECs: 80%
[10]; 200 μM t-BHP, 10 μg/ml compound
  enhancement of t-BHP-induced injury in HUVECs: 76%
[11]
  c-wave of ERG in NaIO3-treated rats: markedly reverse
  reversal of NaIO3 induced dry AMD model (c-wave of ERG): 4 times
